Assay results as given in patent US20240376163A1, “PEPTIDE FOR INHIBITING CALCINEURIN AND USE THEREOF” (Seoul National University R&DB Foundation, priority 2023, published 2024).

Test system: Jurkat T cells
Assay: mRNA sequencing of activated Jurkat T cells
Format: cell-based, human

Sequence: PEITVTPPTP [CABIN1-L-1-2]
- CRIM1 FPKM (P + I): 0.333 FPKM
- CRTAM FPKM (P + I): 9.51 FPKM
- CSF1 FPKM (P + I): 2.594 FPKM
- CSF2 FPKM (P + I): 0.314 FPKM
- CST7 FPKM (P + I): 3.175 FPKM
- CXCL8 FPKM (P + I): 3.327 FPKM
- CXCR3 FPKM (P + I): 1.803 FPKM
- DSTYK FPKM (P + I): 3.595 FPKM
- FBXO34 FPKM (P + I): 18.386 FPKM
- FMNL2 FPKM (P + I): 3.019 FPKM
- FOSL2 FPKM (P + I): 2.362 FPKM
- FOXO1 FPKM (P + I): 3.736 FPKM
- FXYD5 FPKM (P + I): 42.856 FPKM
- FYN FPKM (P + I): 15.512 FPKM
- GFOD1 FPKM (P + I): 6.312 FPKM
- GRK5 FPKM (P + I): 8.975 FPKM
- GTDC1 FPKM (P + I): 5.144 FPKM
- IL2 FPKM (P + I): 12.964 FPKM
- IL3 FPKM (P + I): 6.298 FPKM
- IL21R FPKM (P + I): 5.255 FPKM
- IL21R-AS1 FPKM (P + I): 3.991 FPKM
- IQCJ-SCHIP1 FPKM (P + I): 1.234 FPKM
- IRF4 FPKM (P + I): 2.092 FPKM
- IRF8 FPKM (P + I): 1.914 FPKM
- ISM1 FPKM (P + I): 3.737 FPKM
- JAK2 FPKM (P + I): 8.45 FPKM
- KCNK1 FPKM (P + I): 13.139 FPKM
- KCNK5 FPKM (P + I): 4.904 FPKM
- LAMP3 FPKM (P + I): 9.828 FPKM
- LAX1 FPKM (P + I): 7.578 FPKM
- LIF FPKM (P + I): 0.231 FPKM
- LOC729603 FPKM (P + I): 3.329 FPKM
- LRRC8B FPKM (P + I): 4.298 FPKM
- LTBP4 FPKM (P + I): 9.568 FPKM
- MAP2K3 FPKM (P + I): 43.237 FPKM
- MIR6775 FPKM (P + I): 21.57 FPKM
- MIR6821 FPKM (P + I): 25.116 FPKM
- MYO1D FPKM (P + I): 5.995 FPKM
- NDFIP1 FPKM (P + I): 24.432 FPKM
- NFATC1 FPKM (P + I): 3.916 FPKM
- NPDC1 FPKM (P + I): 5.64 FPKM
- NR4A2 FPKM (P + I): 0.356 FPKM
- NTRK1 FPKM (P + I): 1.657 FPKM
- PAM FPKM (P + I): 1.934 FPKM
- PDGFA FPKM (P + I): 8.169 FPKM
- PELI1 FPKM (P + I): 8.465 FPKM
- PHACTR2 FPKM (P + I): 2.791 FPKM
- PHEX FPKM (P + I): 0.786 FPKM
- PIM3 FPKM (P + I): 72.895 FPKM
- PKIA FPKM (P + I): 18.138 FPKM
- PLK3 FPKM (P + I): 7.036 FPKM
- PLS3 FPKM (P + I): 0.37 FPKM
- POU2AF1 FPKM (P + I): 2.971 FPKM
- PPIF FPKM (P + I): 106.533 FPKM
- PTPN6 FPKM (P + I): 20.806 FPKM
- PTPN22 FPKM (P + I): 5.119 FPKM
- RDH10 FPKM (P + I): 5.524 FPKM
- REL FPKM (P + I): 5.699 FPKM
- RGS16 FPKM (P + I): 5.595 FPKM
- SCHIP1 FPKM (P + I): 1.333 FPKM
- SERPINB2 FPKM (P + I): 14.103 FPKM
- SHC4 FPKM (P + I): 0.686 FPKM
- SLAMF1 FPKM (P + I): 0.275 FPKM
- SLC35E4 FPKM (P + I): 1.517 FPKM
- SORBS1 FPKM (P + I): 0.511 FPKM
- SPRY1 FPKM (P + I): 4.901 FPKM
- STAT5A FPKM (P + I): 3.055 FPKM
- TAGAP FPKM (P + I): 8.731 FPKM
- TBC1D4 FPKM (P + I): 13.191 FPKM
- TBC1D20 FPKM (P + I): 18.427 FPKM
- TDRD9 FPKM (P + I): 1.888 FPKM
- TIAM2 FPKM (P + I): 0.301 FPKM
- TM4SF1 FPKM (P + I): 0.907 FPKM
- TNFRSF4 FPKM (P + I): 11.916 FPKM
- TNFSF9 FPKM (P + I): 2.651 FPKM
- TNFSF14 FPKM (P + I): 4.255 FPKM
- TNS3 FPKM (P + I): 1.418 FPKM
- VAMP1 FPKM (P + I): 14.752 FPKM
- XCL1 FPKM (P + I): 1.144 FPKM
- XCL2 FPKM (P + I): 2.074 FPKM
- ZNF704 FPKM (P + I): 0.183 FPKM
- ZNF827 FPKM (P + I): 1.372 FPKM
- ABCB10 FPKM (P+I): 9.751 FPKM
- ACTG1 FPKM (P+I): 799.981 FPKM
- ADAM19 FPKM (P+I): 4.257 FPKM
- ADD3 FPKM (P+I): 9.536 FPKM
- ADORA2B FPKM (P+I): 6.969 FPKM
- AGO2 FPKM (P+I): 14.51 FPKM
- AIM1 FPKM (P+I): 27.486 FPKM
- APOBEC3A_B FPKM (P+I): 14.665 FPKM
- APOBEC3B FPKM (P+I): 59.895 FPKM
- APOBEC3C FPKM (P+I): 14.323 FPKM
- APOBEC3D FPKM (P+I): 8.981 FPKM
- APOL2 FPKM (P+I): 102.003 FPKM
- APOL6 FPKM (P+I): 46.762 FPKM
- AQP3 FPKM (P+I): 52.98 FPKM
- ARAP2 FPKM (P+I): 13.458 FPKM
- ARC FPKM (P+I): 10.186 FPKM
- ARHGAP23 FPKM (P+I): 1.985 FPKM
- ARHGEF6 FPKM (P+I): 27.254 FPKM
- ASAP1 FPKM (P+I): 9.052 FPKM
- ATG14 FPKM (P+I): 11.252 FPKM
- ATP2B4 FPKM (P+I): 10.46 FPKM
- ATXN1 FPKM (P+I): 2.083 FPKM
- BACH2 FPKM (P+I): 36.118 FPKM
- BAI2 FPKM (P+I): 1.079 FPKM
- BAIAP2-AS1 FPKM (P+I): 2.144 FPKM
- BATF3 FPKM (P+I): 45.085 FPKM
- BHLHE40 FPKM (P+I): 9.368 FPKM
- BTG1 FPKM (P+I): 23.454 FPKM
- C1QL1 FPKM (P+I): 0.756 FPKM
- C1orf233 FPKM (P+I): 0.674 FPKM
- C3 FPKM (P+I): 1.329 FPKM
- C9orf9 FPKM (P+I): 6.009 FPKM
- C10orf54 FPKM (P+I): 0.487 FPKM
- C16orf46 FPKM (P+I): 3.705 FPKM
- CASC15 FPKM (P+I): 2.572 FPKM
- CBX4 FPKM (P+I): 11.578 FPKM
- CBX6 FPKM (P+I): 65.604 FPKM
- CCDC64 FPKM (P+I): 11.039 FPKM
- CCDC71L FPKM (P+I): 16.319 FPKM
- CCL1 FPKM (P+I): 0.415 FPKM
- CCL3L1 FPKM (P+I): 0.079 FPKM
- CCL4 FPKM (P+I): 4.062 FPKM
- CCL4L1 FPKM (P+I): 0.328 FPKM
- CCL4L2 FPKM (P+I): 0.328 FPKM
- CCND2 FPKM (P+I): 0.99 FPKM
- CD1A FPKM (P+I): 4.51 FPKM
- CD1C FPKM (P+I): 2.59 FPKM
- CD1D FPKM (P+I): 3.093 FPKM
- CD27-AS1 FPKM (P+I): 4.613 FPKM
- CD27 FPKM (P+I): 3.4 FPKM
- CD55 FPKM (P+I): 12.082 FPKM
- CD69 FPKM (P+I): 121.846 FPKM
- CD83 FPKM (P+I): 41.173 FPKM
- CDCA7 FPKM (P+I): 21.851 FPKM
- CDT1 FPKM (P+I): 11.831 FPKM
- CFD FPKM (P+I): 1.22 FPKM
- CHI3L2 FPKM (P+I): 51.627 FPKM
- CHRNA9 FPKM (P+I): 2.572 FPKM
- CLEC2B FPKM (P+I): 54.119 FPKM
- CNR2 FPKM (P+I): 0.552 FPKM
- CORO2A FPKM (P+I): 1.623 FPKM
- CRIM1 FPKM (P+I): 0.333 FPKM
- CRTAM FPKM (P+I): 9.51 FPKM
- CSRNP1 FPKM (P+I): 23.093 FPKM
- CST7 FPKM (P+I): 3.175 FPKM
- CTDSPL FPKM (P+I): 1.836 FPKM
- CTTN FPKM (P+I): 15.629 FPKM
- CXCL3 FPKM (P+I): 7.007 FPKM
- CXCL9 FPKM (P+I): 7.221 FPKM
- CXCL10 FPKM (P+I): 6.288 FPKM
- CXCR3 FPKM (P+I): 1.803 FPKM
- CYB5RL FPKM (P+I): 1.449 FPKM
- DFNA5 FPKM (P+I): 9.395 FPKM
- DHFR FPKM (P+I): 6.668 FPKM
- DNAJB11 FPKM (P+I): 109.967 FPKM
- DNAJC1 FPKM (P+I): 13.844 FPKM
- DNPEP FPKM (P+I): 43.482 FPKM
- DOK2 FPKM (P+I): 27.542 FPKM
- DPY19L2P2 FPKM (P+I): 2.643 FPKM
- DPYSL2 FPKM (P+I): 9.177 FPKM
- DTX3L FPKM (P+I): 48.261 FPKM
- DUSP2 FPKM (P+I): 97.06 FPKM
- DUSP5 FPKM (P+I): 157.077 FPKM
- E2F1 FPKM (P+I): 8.062 FPKM
- E2F2 FPKM (P+I): 3.419 FPKM
- EIF2AK3 FPKM (P+I): 9.816 FPKM
- ENC1 FPKM (P+I): 9.268 FPKM
- ENHO FPKM (P+I): 1.223 FPKM
- ENPP1 FPKM (P+I): 51.27 FPKM
- EPAS1 FPKM (P+I): 4.197 FPKM
- EPHA3 FPKM (P+I): 2.536 FPKM
- ERO1LB FPKM (P+I): 4.345 FPKM
- ETV5 FPKM (P+I): 13.264 FPKM
- EVI2A FPKM (P+I): 10.047 FPKM
- FAM46C FPKM (P+I): 5.693 FPKM
- FAM111B FPKM (P+I): 4.22 FPKM
- FASLG FPKM (P+I): 1.715 FPKM
- FBXO34 FPKM (P+I): 18.386 FPKM
- FMNL2 FPKM (P+I): 3.019 FPKM
- FOS FPKM (P+I): 4.53 FPKM
- FOXO1 FPKM (P+I): 3.736 FPKM
- FST FPKM (P+I): 6.872 FPKM
- FURIN FPKM (P+I): 29.008 FPKM
- FYB FPKM (P+I): 10.258 FPKM
- GAMT FPKM (P+I): 11.98 FPKM
- GBP1 FPKM (P+I): 87.487 FPKM
- GBP2 FPKM (P+I): 38.881 FPKM
- GBP3 FPKM (P+I): 68.757 FPKM
- GBP4 FPKM (P+I): 9.209 FPKM
- GBP5 FPKM (P+I): 262.945 FPKM
- GDPD5 FPKM (P+I): 39.139 FPKM
- GEM FPKM (P+I): 2.963 FPKM
- GINS2 FPKM (P+I): 16.516 FPKM
- GLIPR2 FPKM (P+I): 11.773 FPKM
- GNAQ FPKM (P+I): 17.078 FPKM
- GNG2 FPKM (P+I): 17.754 FPKM
- GPR3 FPKM (P+I): 9.964 FPKM
